Results reported in PMC10979456, “Trinucleotide mRNA Cap Analogue N6-Benzylated at the Site of Posttranscriptional ^m6Am Mark Facilitates mRNA Purification and Confers Superior Translational Properties In Vitro and In Vivo” (Journal of the American Chemical Society, 2024).

Assays:
Test in all cases: time-synchronized fluorescence quenching titration
Type in all cases: binding
heIF4E1a = molecular target: T1, heIF4E1a (Homo sapiens, UniProt P06730)
T1 construct: gene EIF4E; not described in main text (experimental details in supplement)
T1 sequence (P06730 2-217): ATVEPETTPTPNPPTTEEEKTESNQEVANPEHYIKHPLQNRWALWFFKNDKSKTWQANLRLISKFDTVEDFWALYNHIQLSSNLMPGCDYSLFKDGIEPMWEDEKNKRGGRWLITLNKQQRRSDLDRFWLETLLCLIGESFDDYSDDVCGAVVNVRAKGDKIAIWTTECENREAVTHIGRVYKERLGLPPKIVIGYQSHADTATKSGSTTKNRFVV

h4EHP (eIF4E2) = molecular target: T2, h4EHP (eIF4E2) (Homo sapiens, UniProt O60573)
T2 construct: not described in main text (experimental details in supplement)
T2 sequence (O60573 1-245): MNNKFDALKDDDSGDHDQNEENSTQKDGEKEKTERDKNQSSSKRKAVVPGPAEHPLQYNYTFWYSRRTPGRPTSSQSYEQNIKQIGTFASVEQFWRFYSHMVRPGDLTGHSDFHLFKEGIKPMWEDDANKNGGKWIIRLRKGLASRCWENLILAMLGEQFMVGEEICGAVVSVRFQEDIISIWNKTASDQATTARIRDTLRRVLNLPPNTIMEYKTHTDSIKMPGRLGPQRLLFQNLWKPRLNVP
Description: time-synchronized fluorescence quenching titration on h4EHP (eIF4E2)

heIF4E3 = molecular target: T3, heIF4E3 (Homo sapiens, UniProt Q8N5X7)
T3 construct: gene EIF4E3; not described in main text (experimental details in supplement)
T3 sequence (Q8N5X7 whole entry): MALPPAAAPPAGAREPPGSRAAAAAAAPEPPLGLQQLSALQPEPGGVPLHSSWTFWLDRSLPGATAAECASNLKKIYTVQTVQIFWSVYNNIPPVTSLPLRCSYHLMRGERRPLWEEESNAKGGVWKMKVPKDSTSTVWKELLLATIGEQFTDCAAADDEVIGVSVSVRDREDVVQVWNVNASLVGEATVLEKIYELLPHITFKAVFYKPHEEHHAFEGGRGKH
Description: time-synchronized fluorescence quenching titration on heIF4E3

Compound | Kd (heIF4E1a) [nM] | Kd (h4EHP (eIF4E2)) [nM] | Kd (heIF4E3) [nM]
CO[C@@H]1[C@H](OP(=O)(O)OC[C@H]2O[C@@H](n3cnc4c(=O)[nH]c(N)nc43)[C@H](O)[C@@H]2O)[C@@H](COP(=O)(O)OP(=O)(O)OP(=O)(O)OC[C@H]2O[C@@H](n3c[n+](C)c4c(=O)[nH]c(N)nc43)[C@H](O)[C@@H]2O)O[C@H]1n1cnc2c(N)ncnc21 [m^7GpppAmpG] | 42.1 ± 0.7 | 1020 ± 19 | 153 ± 3
CO[C@@H]1[C@H](OP(=O)(O)OC[C@H]2O[C@@H](n3cnc4c(=O)[nH]c(N)nc43)[C@H](O)[C@@H]2O)[C@@H](COP(=O)(O)OP(=O)(O)OP(=O)(O)OC[C@H]2O[C@@H](n3c[n+](C)c4c(=O)[nH]c(N)nc43)[C@H](O)[C@@H]2O)O[C@H]1n1cnc2c(NCc3ccccc3)ncnc21 [compound 1, m^7Gppp^Bn6AmpG] | 23.9 ± 0.5 | 687 ± 10 | 95.7 ± 1.7
CNc1ncnc2c1ncn2[C@@H]1O[C@H](COP(=O)(O)OP(=O)(O)OP(=O)(O)OC[C@H]2O[C@@H](n3c[n+](C)c4c(=O)[nH]c(N)nc43)[C@H](O)[C@@H]2O)[C@@H](OP(=O)(O)OC[C@H]2O[C@@H](n3cnc4c(=O)[nH]c(N)nc43)[C@H](O)[C@@H]2O)[C@H]1OC [m^7Gppp^m6AmpG] | 46.4 ± 0.6 | 1340 ± 32 | 140 ± 4
C[n+]1cn([C@@H]2O[C@H](COP(=O)(O)OP(=O)(O)OP(=O)(O)O)[C@@H](O)[C@H]2O)c2nc(N)[nH]c(=O)c21 [m^7GTP] | – | 611 ± 19 | 129 ± 14
